Results reported in US20190352297A1, “SELECTIVE AURORA A KINASE INHIBITORS” (UNIVERSITAT BERN, priority 2017, published 2019).
“Also recorded” adds a separate entry of the source.

Assays:
[1] = system: phospho-Histone H3 Ser10 (Aurora B); experiment: Phospho-Histone H3 Ser10 in cells (Aurora B activity); type: cell-based, human
Method: HeLa Kyoto cells were cultured in high-glucose DMEM with GlutaMAX (Life Technologies) media supplemented with 10% fetal calf serum (FCS) in a humidified 5% CO2 incubator at 37° C. For plasmid transfections, cells were seeded at 80-90% confluence. 4 μg of plasmid DNA in 100 μl OptiMEM and 4 μl of Lipofectamine 2000 (Life Technologies) in 100 μl OptiMEM were incubated in parallel for 5 minutes, mixed for 20 minutes and added to each well. All Aurora A clones were constructed using full-length Aurora A as a template with appropriate PCR primer pairs. […] GFP-Aurora AR137A and GFP-Aurora AW277A were engineered using a site directed mutagenesis kit (Agilent Technologies, no. 210515) with appropriate primers. For determining the mitotic index and the chromosome misalignment phenotype, cells were incubated with various concentrations of compounds for 20 h before analysis. Cells were likewise treated with 0.25 μM MLN8237 (Selleckchem, no. S1133) or 5 μM ZM447439 (Selleckchem, no. S1103). For flow cytometry analysis, 50 nM […] and 2.5 μM ZM447439 were used. For rescue experiments, HeLa Kyoto cells were first transfected with GFP-Aurora A, GFP-Aurora AR137A or GFP-Aurora AW277A for 20 h, followed by incubation with 9 for another 20 h before cells were fixed with cold methanol and stained. To assess the impact of compound 9 on cell cycle progression, DNA content was analyzed after propidium iodide staining using FACS (BD Accuri C6 flow cytometer).
For immunofluorescence, cells were fixed in cold methanol, washed in PBT (PBS supplemented with 0.05% Tween-20) and stained with the following primary antibodies: 1:200 rabbit anti-pT288 (Cell Signaling, C39D8), 1:200 rabbit anti-pH3S10 (Cell Signaling, D2C8), 1:500 mouse anti-α-tubulin (Transduction Laboratories, 612709), 1:300 mouse anti-GFP (MAB3580, Millipore), 1:200 anti-TPX2 (Santa Cruz Biotechnology, sc-32863), anti-Aurora A (Invitrogen, 458900). Secondary antibodies were anti-mouse conjugated to Alexa488 or Alexa568, as well as anti-rabbit conjugated to Alexa488 or Alexa568, all used at 1:500 (Invitrogen). Confocal images were acquired on a Zeiss LSM 710 confocal microscope equipped with a Axiocam MRm (B/VVW) CCD camera using a 63×NA 1.0 oil objective and processed in ImageJ and Adobe Photoshop, maintaining relative image intensities within a series.

Aurora A (Trp277) = molecular target: T1, Aurora A (Trp277) (Homo sapiens, UniProt O14965); experiment: Intrinsic tryptophan fluorescence; type: binding
T1 construct: human Aurora A kinase domain (residues 122-403 in the pET24-d vector); His-tag (cleaved yes); made in house; host or cells: E. coli BL21 (DE3) Rosetta
T1 sequence (O14965 122-403): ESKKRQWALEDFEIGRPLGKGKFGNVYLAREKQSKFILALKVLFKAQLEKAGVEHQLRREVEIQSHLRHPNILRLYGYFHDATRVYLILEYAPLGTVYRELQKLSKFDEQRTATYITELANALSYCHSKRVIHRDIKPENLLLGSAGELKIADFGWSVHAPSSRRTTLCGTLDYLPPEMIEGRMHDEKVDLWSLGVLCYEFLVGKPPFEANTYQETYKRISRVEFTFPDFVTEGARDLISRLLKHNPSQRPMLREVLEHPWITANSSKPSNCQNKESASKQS
Method: Binding experiments were performed by mixing Aurora A (500 nM, 375 nM, and 150 nM for 77, 9, and 88, respectively) with varying concentrations (0-100 μM) of the different compounds in buffer (final DMSO concentration 1%), followed by incubation for 15 min at room temperature. Tryptophan fluorescence spectra were recorded at room temperature using an Infinite M1000 Pro plate reader (Tecan) and Corning 96 well half area, flat bottom, non-binding surface, black polystyrene plates. Excitation occurred at 284 nm (bandwidth ±5 nm) and emission at 340 nm (bandwidth ±10 nm). The gain was calculated from the well with the highest protein concentration. Each measurement was done in triplicate.

- IC50 ([1]; Aurora B/INCENP, cells, read-out: cellular IC50 (pH3)): > 25 µM
- tryptophan fluorescence, environment of Trp277 (Aurora A (Trp277)): perturbed the environment of Trp277
SMILES: CCc1ccc(N=C2SC(=Cc3ccnc(Nc4ccc(C(=O)O)cn4)c3)C(=O)N2C)cc1 [Compound 9]
- effect on Aurora B activity in cells [1]: no effect; also recorded: without impairing Aurora B function
- distribution of phospho-Histone H3 Ser10 ([1]; treated cells): remained unchanged
